According to US9247741B2, “Use of macrocyclic picolinamides as fungicides” (DOW AGROSCIENCES LLC, priority 2013, dated 2016):
Read-outs that look alike come from different tables or passages of the source.

Legend:
[1] = tested on: Puccinia triticina; test: Wheat brown rust (PUCCRT) disease control on wheat seedlings; type: in vivo; settings: for pest or weed control at 100 ppm: 100 ppm (high volume); for pest or weed control at 121.5 g/ha: 121.5 g/H (low volume track spray)
Procedure: Technical grades of materials were dissolved in acetone, which were then mixed with nine volumes of water containing 110 ppm Triton X-100. The fungicide solutions were applied onto wheat seedlings using an automated booth sprayer to run-off. All sprayed plants were allowed to air dry prior to further handling. All fungicides were evaluated using the aforementioned method for their activity vs. all target diseases. Wheat leaf blotch and brown rust activity were also evaluated using track spray applications, in which case the fungicides were formulated as EC formulations, containing 0.1% Trycol 5941 in the spray solutions. Wheat plants (variety Yuma) were grown from seed in a greenhouse in 50% mineral soil/50% soil-less Metro mix until the first leaf was fully emerged, with 7-10 seedlings per pot. These plants were inoculated with an aqueous spore suspension of Septoria tritici either prior to or after fungicide treatments. After inoculation the plants were kept in 100% relative humidity (one day in a dark dew chamber followed by two to three days in a lighted dew chamber at 20° C.) to permit spores to germinate and infect the leaf. The plants were then transferred to a greenhouse set at 20° C. for disease to develop. When disease symptoms were fully expressed on the l^st leaves of untreated plants, infection levels were assessed on a scale of 0 to 100 percent disease severity. Percent disease control was calculated using the ratio of disease severity on treated plants relative to untreated plants. Evaluation of Fungicidal Activity: Wheat Brown Rust (Puccinia triticina; Synonym: Puccinia recondite f sp. tritici; Bayer code PUCCRT) Wheat plants (variety Yuma) were grown from seed in a greenhouse in 50% mineral soil/50% soil-less Metro mix until the first leaf was fully emerged, with 7-10 seedlings per pot. These plants were inoculated with an aqueous spore suspension of Puccinia triticina either prior to or after fungicide treatments. After inoculation the plants were kept in a dark dew room at 22° C. with 100% relative humidity overnight to permit spores to germinate and infect the leaf. The plants were then transferred to a greenhouse set at 24° C. for disease to develop. Fungicide formulation, application and disease assessment followed the procedures as described in the Example A.

[2] = tested on: Mycosphaerella graminicola; Anamorph: Septoria tritici; test: Leaf blotch of wheat (SEPTTR) disease control on wheat seedlings; type: in vivo; settings: Zymoseptoria tritici; for pest or weed control at 121.5 g/ha: 121.5 g/H (low volume track spray)
Procedure: Evaluation of Fungicidal Activity: Leaf Blotch of Wheat (Mycosphaerella graminicola; Anamorph: Septoria tritici; Bayer Code […]) Technical grades of materials were dissolved in acetone, which were then mixed with nine volumes of water containing 110 ppm Triton X-100. The fungicide solutions were applied onto wheat seedlings using an automated booth sprayer to run-off. All sprayed plants were allowed to air dry prior to further handling. All fungicides were evaluated using the aforementioned method for their activity vs. all target diseases. Wheat leaf blotch and brown rust activity were also evaluated using track spray applications, in which case the fungicides were formulated as EC formulations, containing 0.1% Trycol 5941 in the spray solutions. Wheat plants (variety Yuma) were grown from seed in a greenhouse in 50% mineral soil/50% soil-less Metro mix until the first leaf was fully emerged, with 7-10 seedlings per pot. These plants were inoculated with an aqueous spore suspension of Septoria tritici either prior to or after fungicide treatments. After inoculation the plants were kept in 100% relative humidity (one day in a dark dew chamber followed by two to three days in a lighted dew chamber at 20° C.) to permit spores to germinate and infect the leaf. The plants were then transferred to a greenhouse set at 20° C. for disease to develop. When disease symptoms were fully expressed on the l^st leaves of untreated plants, infection levels were assessed on a scale of 0 to 100 percent disease severity. Percent disease control was calculated using the ratio of disease severity on treated plants relative to untreated plants.

[3] = 24 h, 1 Day Protectant, read-out: PUCCRT 1DP disease control rating
[4] = 72 h, 3 Day Curative, read-out: PUCCRT 3DC disease control rating
[5] = 24 h, 1 Day Protectant, 100 ppm (high volume), wheat, read-out: SEPTTR 1DP disease control rating
[6] = 72 h, 3 Day Curative, 100 ppm (high volume), wheat, read-out: SEPTTR 3DC disease control rating
[7] = 24 h, 1 Day Protectant, wheat, read-out: SEPTTR 1DP disease control rating
[8] = 72 h, 3 Day Curative, wheat, read-out: SEPTTR 3DC disease control rating

melting point	SMILES	pest or weed control at 100 ppm [1, 3]	pest or weed control at 100 ppm [1, 4]	pest or weed control at 100 ppm [2, 5]	pest or weed control at 100 ppm [2, 6]	also measured
196 to 198 °C	CCCC[C@H]1[C@H](C)OC(=O)[C@@H](N)CCC[C@@H]1OCCCC(F)(F)F.Cl	–	–	–	–	–
68 to 71 °C	COc1ccnc(C(=O)N[C@H]2CCC[C@H](Oc3ccc(C)cc3)[C@@H](Cc3ccccc3)[C@H](C)OC2=O)c1O [Compound 60]	> 70%	> 70%	> 70%	> 70%	–
58 to 62 °C	COc1ccnc(C(=O)N[C@H]2CCC[C@H](OCc3ccccc3)[C@@H](CCC(C)C)[C@H](C)OC2=O)c1OC(C)=O [Compound 17]	–	–	–	–	pest or weed control at 121.5 g/ha [1, 3]: > 70%; pest or weed control at 121.5 g/ha [1, 4]: > 70%; pest or weed control at 121.5 g/ha [2, 7]: > 70%; pest or weed control at 121.5 g/ha [2, 8]: > 70%
223 to 224 °C	CCCC[C@H]1[C@H](C)OC(=O)[C@@H](N)CCC[C@@H]1OCC1CC1.Cl	–	–	–	–	–
97 to 100 °C	CC(C)CC[C@H]1[C@H](C)OC(=O)[C@@H](NC(=O)OC(C)(C)C)CCC[C@@H]1OCc1ccccc1 [Compound 51]	–	–	–	–	–
55 to 60 °C	COc1ccnc(C(=O)N[C@H]2CCC[C@H](Oc3ccccc3)[C@@H](CCC(C)C)[C@H](C)OC2=O)c1O [Compound 8]	> 70%	> 70%	> 70%	> 70%	–
59 to 64 °C	CCCO[C@H]1CCC[C@H](NC(=O)c2nccc(OC)c2O)C(=O)O[C@@H](C)[C@@H]1Cc1ccccc1 [Compound 49]	> 70%	> 70%	> 70%	> 70%	–
–	COc1ccnc(C(=O)N[C@H]2CCC[C@H](OC(=O)C3CC3)[C@@H](Cc3ccc(F)cc3)[C@H](C)OC2=O)c1OCOC(C)=O [Compound 43]	–	–	–	–	pest or weed control at 121.5 g/ha [1, 3]: > 70%; pest or weed control at 121.5 g/ha [1, 4]: > 70%; pest or weed control at 121.5 g/ha [2, 7]: > 70%; pest or weed control at 121.5 g/ha [2, 8]: > 70%
–	COc1ccnc(C(=O)N[C@H]2CCC[C@H](OCC(C)C)[C@@H](Cc3ccccc3)[C@H](C)OC2=O)c1OCOC(C)=O [Compound 65]	–	–	–	–	pest or weed control at 121.5 g/ha [1, 3]: > 70%; pest or weed control at 121.5 g/ha [1, 4]: > 70%; pest or weed control at 121.5 g/ha [2, 7]: > 70%; pest or weed control at 121.5 g/ha [2, 8]: > 70%
–	CCCC[C@H]1[C@H](C)OC(=O)[C@@H](NC(=O)c2nccc(OC)c2O)CCC[C@@H]1OC(=O)C(C)C [Compound 64]	> 70%	< 70%	> 70%	> 70%	–

SMILES	melting point	pest or weed control at 100 ppm [1, 3]	pest or weed control at 100 ppm [1, 4]	pest or weed control at 100 ppm [2, 5]	pest or weed control at 100 ppm [2, 6]	also measured
CCCO[C@H]1CCC[C@H](NC(=O)c2nccc(OC)c2O)C(=O)O[C@@H](C)[C@@H]1CCC(C)C [Compound 31, 3-hydroxy-N-((3S,7S,8S,9S)-8-isopentyl-9-methyl-2-oxo-7-propoxyoxonan-3-yl)-4-methoxypicolinamide]	45 to 49 °C	> 70%	< 70%	–	–	pest or weed control at 100 ppm ([2]; 24 h, read-out: SEPTTR 1DP disease control rating): < 70%; pest or weed control at 100 ppm ([2]; 72 h, read-out: SEPTTR 3DC disease control rating): < 70%
